Test results from patent publication US7049302B1, “Compositions of CPG and saponin adjuvants and uses thereof” (Antigenics Inc., priority 1998, dated 2006).

What was measured:
Format in all cases: in vivo, C57BL/6 mice
E.G7-OVA cells [1] = assay: 51Cr release CTL assay, splenocytes of OVA-immunized mice stimulated in vitro with mitomycin C-treated E.G7-OVA cells; details: 1.25 μg QS-21 alone (suboptimal dose), with 25 μg OVA s.c. days 1, 15, 29; splenocytes day 42; FIG. 1
Protocol: C57BL/6 mice (5 per group, female, 8–10 weeks of age) were immunized by subcutaneous route at days 1, 15, and 29. The vaccines were 25 μg OVA antigen plus the indicated doses of adjuvant in a total volume of 0.2 ml phosphate-buffered saline. […] They were stimulated in vitro for 6 days with mitomycin C-treated E.G7-OVA cells and then used in a standard ^51Cr release CTL assay. E.G7-OVA cells (loaded with ^51Cr) were used as target cells. The background lysis of EL4 cells (not transfected by OVA) was subtracted from the lysis of E.G7-OVA cells to obtain a percent (%) antigen-specific lysis.

E.G7-OVA cells [2] = assay: 51Cr release CTL assay, splenocytes of OVA-immunized mice stimulated in vitro with denatured OVA; details: 1.25 μg QS-21 alone (suboptimal dose), with 25 μg OVA, FIG. 2
Protocol: C57BL/6 mice (5 per group, female, 8–10 weeks of age) were immunized by subcutaneous route at days 1, 15, and 29. The vaccines were 25 μg OVA antigen plus the indicated doses of adjuvant in a total volume of 0.2 ml phosphate-buffered saline. […] (Weiner, et al., Proc. Natl. Acad. Sci. 94:10833 (1997).) Splenocytes were removed at day 42 for use as effector cells in the CTL assay. They were stimulated in vitro for 6 days with mitomycin C-treated E.G7-OVA cells and then used in a standard ^51Cr release CTL assay. E.G7-OVA cells (loaded with ^51Cr) were used as target cells. The background lysis of EL4 cells (not transfected by OVA) was subtracted from the lysis of E.G7-OVA cells to obtain a percent (%) antigen-specific lysis.
Splenocytes from mice immunized as described in FIG. 1 were used in a CTL assay. Splenocytes were stimulated in vitro with denatured OVA for six days prior to use in the CTL assay. The assay was carried out against E.G7-OVA cells as described in Example 1.

OVA = assay: Serum IgG1 and IgG2a titers to OVA by EIA; details: sera day 42
Protocol: Serum titers to OVA were determined by EIA on sera collected on day 42 from the mice immunized as described in Example 1. IgG subclass IgG1 and IgG2a titers were determined for individual mice (5 mice per group) and are plotted as a geometric mean titer.

## QS-21
E.G7-OVA cells [1]
  antigen-specific lysis (CTL): no lysis
E.G7-OVA cells [2]
  antigen-specific lysis (CTL): no lysis
OVA; 10 μg QS-21 alone, geometric mean titer, among the highest groups, FIG. 3
  OVA-specific IgG1 titer, enhancement over the unadjuvanted group: ~10 fold
OVA; any QS-21 dose used alone
  OVA-specific IgG2a response: not detected
